From patent US20040029927A1, “Use of a compound in providing refreshedness on waking and a method for the treatment of grogginess therewith” (The Boots Company PLC, priority 2001, published 2004)
Counter-ions that a name gives are not always drawn.

Legend:
volunteers = settings: single doses 10 mg or 20 mg sustained release at bedtime; cited from earlier work
[1] = test system: patients with temporary sleep disturbance; assay: Clinical trial, Loughborough sleep log: last night I slept (quality of sleep, 5-point scale); type: in vivo, human
Method: (§1) The efficacy of triprolidine in enabling a patient to feel refreshed or alert upon waking after taking triprolidine prior to sleeptime was investigated using patients with a history of sleep disorders and utilising triprolidine prepared in accordance with example 3.
(§2) A multiple-dose, placebo-controlled, parallel-group, double-blind, randomised study investigating the effects of 2.5 mg and 5 mg triprolidine in patients with temporary sleep disturbance.
(§3) Male and Female candidates aged 18 years and above were recruited to one of five research centres by means of local advertising. Candidates were screened by means of a telephone questionnaire and selected candidates invited for interview at the research centre. Key inclusion criteria used to select candidates for the study were:
(§4) The candidates came to the research centre on Thursday or Friday and were fitted with a wrist actimeter (AW4 from Cambridge Technology) to establish a baseline measure for SDI and were provided with diary cards to record subjective assessments for the Loughborough Sleep Log and the Karolinska Sleepiness Scale. They returned to the investigational site on the Monday and were issued with the study compositions (2.5 mg triprolidine, 5 mg triprolidine or placebo). The investigator telephoned a central randomisation centre where the subject was randomised to a particular treatment group using a dynamic balanced randomisation algorithm. The subject was given three doses of their allocated study medication and instructed to take a single dose of two tablets 20 minutes before they intended to go to sleep on three consecutive evenings, commencing that evening. The diary cards for the Loughborough Sleep Log and Karolinska Sleepiness Scale were asked to be completed on waking.
(§5) In the trial, patients were tested during a seven day period and the results have been analysed for a mean of three days in the middle of this period. The effects of triprolidine at dose level 2.5 mg and 5.0 mg are compared with placebo in table 1.
(§6) The following is a copy of the “Loughborough sleep log questionnaire” which was used by patients in the study and provided the data for datasets a and b in table 1

[2] = test system: patients with temporary sleep disturbance; assay: Clinical trial, Karolinska 9-point sleepiness scale; type: in vivo, human
Method: as §1
(a) Karolinska scale as defined in: Int. J. Neuroscience 52 29-37 (1990); and
as §2, §3, §4
A daytime sleepiness assessment was also made 20 minutes, 2 hours and 4 hours after awaking on the Karolinska 9-point scale, i.e. the sleepiness scale.
Karolinska's sleepiness scale is set out below and the results for placebo, 2.5 and 5.0 mg doses of triprolidine are shown in tables 4 and 5. Table 4 relates to the number of individuals experiencing scales 1, 2 or 3 on the Karolinska scale and table 5 relates to the number of individuals experiencing scales 8 and 9.
Karolinska Sleepiness Scale
This will be completed 20 minutes after awakening and then at 2 hours and 4 hours following the first assessment on days 5, 6, 7 and 8.

[3] = test system: patients with temporary sleep disturbance; assay: Clinical trial, Loughborough sleep log: feeling of refreshedness 15 minutes after waking (5-point scale); type: in vivo, human
Method: as §1, §2, §3, §4
Candidates were required to complete a questionnaire 15 minutes after awaking on the feeling of refreshedness assessed on a 5-point scale, the Loughborough sleep log.
as §5
Generally the treatment groups were well balanced in terms of the demographic data. Unless otherwise mentioned all group data was analysed using ANOVA. In two cases, namely, how the patient felt 15 minutes after awakening in the Loughborough Sleep Log and the Karolinska Sleepiness Scale at 20 minutes, the two variables were analysed using ANCOVA by including the weekend and the mean of Friday/Saturday/Sunday night as a covariate. The method was a closed test procedure (Williams' test). Each of the tests were to be conducted at the 5% level. The analysis of the secondary endpoints was similarly conducted using the Student's t-tests on parameter estimates taken from the analysis of variance model presented above.
as §6

Cc1ccc(/C(=C\CN2CCCC2)c2ccccn2)cc1 [TRP.HCl.H2O]
sleep onset latency (time required to fall asleep) compared with placebo (volunteers): did not significantly alter
total sleep time compared with placebo (volunteers): no effect
wakefulness during sleep compared with placebo (volunteers): no effect
last night I slept (1- extremely well, 5- extremely badly), Mean ([1]; 2.5 mg, Mean of 3): 2.73
last night I slept (1- extremely well, 5- extremely badly), Mean ([1]; 2.5 mg, Mon): 2.67
Last Night I Slept Extremely Well or Very Well Responses ([1]; 2.5 mg, Monday): 41.4%
last night I slept (1- extremely well, 5- extremely badly), Mean ([1]; 2.5 mg, Tues): 2.71
Last Night I Slept Extremely Well or Very Well Responses ([1]; 2.5 mg, Tuesday): 41.8%
last night I slept (1- extremely well, 5- extremely badly), Mean ([1]; 2.5 mg, Wed): 2.81
Last Night I Slept Extremely Well or Very Well Responses ([1]; 2.5 mg, Wednesday): 37.9%
last night I slept (1- extremely well, 5- extremely badly), Mean ([1]; 5 mg, Mean of 3): 2.69
last night I slept (1- extremely well, 5- extremely badly), Mean ([1]; 5 mg, Mon): 2.49
Last Night I Slept Extremely Well or Very Well Responses ([1]; 5 mg, Monday): 50.9%
last night I slept (1- extremely well, 5- extremely badly), Mean ([1]; 5 mg, Tues): 2.93
Last Night I Slept Extremely Well or Very Well Responses ([1]; 5 mg, Tuesday): 28.8%
last night I slept (1- extremely well, 5- extremely badly), Mean ([1]; 5 mg, Wed): 2.64
Last Night I Slept Extremely Well or Very Well Responses ([1]; 5 mg, Wednesday): 39.3%
percentage of people feeling alert, very alert or extremely alert on waking versus placebo ([2]; 2.5 mg): greater percentage
percentage of people feeling sleepy, some effort, or very sleepy, great effort to keep awake, on waking versus placebo ([2]; 2.5 mg): lower percentage
residual hangover effects/morning grogginess ([2]; 2.5 mg): no evidence of residual hangover effects/morning grogginess
I feel (i) sleepy, some effort or (ii) very sleepy, a great effort to keep awake (Karolinska scales 8 and 9) ([2]; 2.5 mg, Monday): 11.5%
I feel extremely alert, very alert or alert (Karolinska scales 1, 2 or 3) ([2]; 2.5 mg, Monday): 21.3%
I feel (i) sleepy, some effort or (ii) very sleepy, a great effort to keep awake (Karolinska scales 8 and 9) ([2]; 2.5 mg, Tuesday): 13.1%
I feel extremely alert, very alert or alert (Karolinska scales 1, 2 or 3) ([2]; 2.5 mg, Tuesday): 21.3%
I feel (i) sleepy, some effort or (ii) very sleepy, a great effort to keep awake (Karolinska scales 8 and 9) ([2]; 2.5 mg, Wednesday): 6.5%
I feel extremely alert, very alert or alert (Karolinska scales 1, 2 or 3) ([2]; 2.5 mg, Wednesday): 21.0%
I feel (i) sleepy, some effort or (ii) very sleepy, a great effort to keep awake (Karolinska scales 8 and 9) ([2]; 5 mg, Monday): 12.5%
I feel extremely alert, very alert or alert (Karolinska scales 1, 2 or 3) ([2]; 5 mg, Monday): 6.3%
I feel (i) sleepy, some effort or (ii) very sleepy, a great effort to keep awake (Karolinska scales 8 and 9) ([2]; 5 mg, Tuesday): 17.5%
I feel extremely alert, very alert or alert (Karolinska scales 1, 2 or 3) ([2]; 5 mg, Tuesday): 9.5%
I feel (i) sleepy, some effort or (ii) very sleepy, a great effort to keep awake (Karolinska scales 8 and 9) ([2]; 5 mg, Wednesday): 12.7%
I feel extremely alert, very alert or alert (Karolinska scales 1, 2 or 3) ([2]; 5 mg, Wednesday): 17.5%
daytime sleepiness ([2]; either dose (2.5 mg or 5 mg)): lack of daytime sleepiness
15 mins after awaking (1- very refreshed 5- very tired), Mean ([3]; 2.5 mg, Mean of 3): 3.24
15 mins after awaking (1- very refreshed 5- very tired), Mean ([3]; 2.5 mg, Mon): 3.33
Awoke Very Refreshed or Refreshed Responses ([3]; 2.5 mg, Monday): 23%
15 mins after awaking (1- very refreshed 5- very tired), Mean ([3]; 2.5 mg, Tues): 3.23
Awoke Very Refreshed or Refreshed Responses ([3]; 2.5 mg, Tuesday): 23%
15 mins after awaking (1- very refreshed 5- very tired), Mean ([3]; 2.5 mg, Wed): 3.18
Awoke Very Refreshed or Refreshed Responses ([3]; 2.5 mg, Wednesday): 25.8%
feeling of refreshedness 15 minutes after waking versus placebo ([3]; 2.5 mg, p<0.05): more refreshed than those on placebo
15 mins after awaking (1- very refreshed 5- very tired), Mean ([3]; 5 mg, Mean of 3): 3.59
15 mins after awaking (1- very refreshed 5- very tired), Mean ([3]; 5 mg, Mon): 3.72
Awoke Very Refreshed or Refreshed Responses ([3]; 5 mg, Monday): 11.5%
15 mins after awaking (1- very refreshed 5- very tired), Mean ([3]; 5 mg, Tues): 3.56
Awoke Very Refreshed or Refreshed Responses ([3]; 5 mg, Tuesday): 8.2%
15 mins after awaking (1- very refreshed 5- very tired), Mean ([3]; 5 mg, Wed): 3.54
Awoke Very Refreshed or Refreshed Responses ([3]; 5 mg, Wednesday): 14.8%
